Measurements reported in the NIST ThermoML archive (doi:10.1021/je1008747).

Conditions: Liquid

CCCCn1cc[n+](C)c1.[Cl-] [1-butyl-3-methylimidazolium chloride]
Conditions | mass density [kg/m3]
348.15 K, 101.33 kPa | 1055.7
352.1 K, 100 kPa | 1054
352.1 K, 10000 kPa | 1058
352.1 K, 20000 kPa | 1062
352.1 K, 30000 kPa | 1067
352.1 K, 40000 kPa | 1071
352.1 K, 50000 kPa | 1074
352.1 K, 60000 kPa | 1078
352.1 K, 70000 kPa | 1082
352.1 K, 80000 kPa | 1085
352.1 K, 90000 kPa | 1089
352.1 K, 100000 kPa | 1093
352.1 K, 110000 kPa | 1096
352.1 K, 120000 kPa | 1099
352.1 K, 130000 kPa | 1102
352.1 K, 140000 kPa | 1106
352.1 K, 150000 kPa | 1109
352.1 K, 160000 kPa | 1112
352.1 K, 170000 kPa | 1115
352.1 K, 180000 kPa | 1118
352.1 K, 190000 kPa | 1121
352.1 K, 200000 kPa | 1124
353.15 K, 101.33 kPa | 1053
358.15 K, 101.33 kPa | 1050.4
363.15 K, 101.33 kPa | 1047.7
368.15 K, 101.33 kPa | 1045.1
372.4 K, 10000 kPa | 1046
372.4 K, 20000 kPa | 1050
372.4 K, 30000 kPa | 1055
372.4 K, 40000 kPa | 1059
372.4 K, 50000 kPa | 1063
372.4 K, 60000 kPa | 1067
372.4 K, 70000 kPa | 1071
372.4 K, 80000 kPa | 1074
372.4 K, 90000 kPa | 1078
372.4 K, 100000 kPa | 1081
372.4 K, 110000 kPa | 1085
372.4 K, 120000 kPa | 1088
372.4 K, 130000 kPa | 1092
372.4 K, 140000 kPa | 1095
372.4 K, 150000 kPa | 1099
372.4 K, 160000 kPa | 1102
372.4 K, 170000 kPa | 1105
372.4 K, 180000 kPa | 1108
372.4 K, 190000 kPa | 1111
372.4 K, 200000 kPa | 1115
373.15 K, 101.33 kPa | 1042.6
392.3 K, 10000 kPa | 1034
392.3 K, 20000 kPa | 1038
392.3 K, 30000 kPa | 1043
392.3 K, 40000 kPa | 1047
392.3 K, 50000 kPa | 1052
392.3 K, 60000 kPa | 1056
392.3 K, 70000 kPa | 1059
392.3 K, 80000 kPa | 1063
392.3 K, 90000 kPa | 1067
392.3 K, 100000 kPa | 1071
392.3 K, 110000 kPa | 1075
392.3 K, 120000 kPa | 1078
392.3 K, 130000 kPa | 1081
392.3 K, 140000 kPa | 1085
392.3 K, 150000 kPa | 1088
392.3 K, 160000 kPa | 1092
392.3 K, 170000 kPa | 1095
392.3 K, 180000 kPa | 1099
392.3 K, 190000 kPa | 1102
392.3 K, 200000 kPa | 1105
412.3 K, 10000 kPa | 1022
412.3 K, 20000 kPa | 1027
412.3 K, 30000 kPa | 1032
412.3 K, 40000 kPa | 1036
412.3 K, 50000 kPa | 1041
412.3 K, 60000 kPa | 1045
412.3 K, 70000 kPa | 1049
412.3 K, 80000 kPa | 1053
412.3 K, 90000 kPa | 1057
412.3 K, 100000 kPa | 1061
412.3 K, 110000 kPa | 1064
412.3 K, 120000 kPa | 1068
412.3 K, 130000 kPa | 1072
412.3 K, 140000 kPa | 1076
412.3 K, 150000 kPa | 1079
412.3 K, 160000 kPa | 1082
412.3 K, 170000 kPa | 1086
412.3 K, 180000 kPa | 1089
412.3 K, 190000 kPa | 1092
412.3 K, 200000 kPa | 1096
432.2 K, 10000 kPa | 1011
432.2 K, 20000 kPa | 1016
432.2 K, 30000 kPa | 1021
432.2 K, 40000 kPa | 1026
432.2 K, 50000 kPa | 1030
432.2 K, 60000 kPa | 1035
432.2 K, 70000 kPa | 1039
432.2 K, 80000 kPa | 1043
432.2 K, 90000 kPa | 1047
432.2 K, 100000 kPa | 1051
432.2 K, 110000 kPa | 1055
432.2 K, 120000 kPa | 1059
432.2 K, 130000 kPa | 1062
432.2 K, 140000 kPa | 1066
432.2 K, 150000 kPa | 1069
432.2 K, 160000 kPa | 1073
432.2 K, 170000 kPa | 1076
432.2 K, 180000 kPa | 1080
432.2 K, 190000 kPa | 1083
432.2 K, 200000 kPa | 1087
452 K, 10000 kPa | 1000
452 K, 20000 kPa | 1005
452 K, 30000 kPa | 1010
452 K, 40000 kPa | 1015
452 K, 50000 kPa | 1020
452 K, 60000 kPa | 1024
452 K, 70000 kPa | 1028
452 K, 80000 kPa | 1032
452 K, 90000 kPa | 1037
452 K, 100000 kPa | 1041
452 K, 110000 kPa | 1045
452 K, 120000 kPa | 1048
452 K, 130000 kPa | 1052
452 K, 140000 kPa | 1056
452 K, 150000 kPa | 1060
452 K, 160000 kPa | 1063
452 K, 170000 kPa | 1067
452 K, 180000 kPa | 1070
452 K, 190000 kPa | 1074
452 K, 200000 kPa | 1077
